Laboratory results: patent US20100317698A1, “Polysubstituted Pyridinylaminoalkylene- and Pyridinyloxyalkylene-Cyclopropanamine Compounds, a Process for Their Preparation and Pharmaceutical Compositions Containing Them” (LES LABORATOIRES SERVIER, priority 2006, published 2010)
Counter-ions that a name gives are not always drawn.

What was measured:
[1] = biological target: T1, type α4β2 central nicotinic receptors (Rattus norvegicus, UniProt P09483+P12390); assay: Displacement of binding of [3H]-cytisine to type α4β2 nicotinic receptors of rat brain; conditions: rat brain membranes, read-out: Affinity (Ki, nM) for type α4β2 receptors
T1 construct: from tissue; host or cells: rat brain membranes
Protocol: This study, carried out according to the technique described in Molec. Pharmacol., 1990, 39; 9-12, is aimed at determining the affinity of compounds of the present invention for type […] central nicotinic receptors.
Membranes (250 μg/ml) of rat brain are incubated (2 hours, 20° C.) in the presence of a series of concentrations (0.01-10 μM) of each compound of the present invention (diluted starting from a 10 mM stock solution in DMSO) and [^3H]-cytisine (S.A.: 1184 GBq/mmol: 2 nM) in phosphate buffer (NaH2PO4 20 mM, pH 7.4); final volume: 250 μl. The non-specific binding is determined by incubating membranes in the presence of 10 μM of (−)nicotine. The affinity of the compounds of the present invention for type α4β2 central nicotinic receptors is characterised by determination of the Ki.

T1 sequence (P09483 31-630): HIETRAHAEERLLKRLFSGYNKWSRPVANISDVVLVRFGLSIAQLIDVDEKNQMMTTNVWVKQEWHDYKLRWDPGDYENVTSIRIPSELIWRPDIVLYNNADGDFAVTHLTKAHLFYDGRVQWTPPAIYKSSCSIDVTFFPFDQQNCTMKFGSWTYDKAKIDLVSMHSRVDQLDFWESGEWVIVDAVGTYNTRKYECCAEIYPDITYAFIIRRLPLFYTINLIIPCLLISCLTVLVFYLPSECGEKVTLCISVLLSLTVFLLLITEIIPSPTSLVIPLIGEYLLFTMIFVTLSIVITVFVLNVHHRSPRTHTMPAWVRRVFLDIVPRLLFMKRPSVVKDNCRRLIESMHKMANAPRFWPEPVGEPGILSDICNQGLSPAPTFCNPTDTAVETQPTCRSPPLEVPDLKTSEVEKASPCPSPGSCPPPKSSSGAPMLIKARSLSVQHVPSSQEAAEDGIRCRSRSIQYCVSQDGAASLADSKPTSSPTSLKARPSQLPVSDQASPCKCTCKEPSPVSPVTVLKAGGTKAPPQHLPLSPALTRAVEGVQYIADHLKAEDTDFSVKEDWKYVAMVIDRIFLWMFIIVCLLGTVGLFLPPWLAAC
T1 sequence (P12390 25-500): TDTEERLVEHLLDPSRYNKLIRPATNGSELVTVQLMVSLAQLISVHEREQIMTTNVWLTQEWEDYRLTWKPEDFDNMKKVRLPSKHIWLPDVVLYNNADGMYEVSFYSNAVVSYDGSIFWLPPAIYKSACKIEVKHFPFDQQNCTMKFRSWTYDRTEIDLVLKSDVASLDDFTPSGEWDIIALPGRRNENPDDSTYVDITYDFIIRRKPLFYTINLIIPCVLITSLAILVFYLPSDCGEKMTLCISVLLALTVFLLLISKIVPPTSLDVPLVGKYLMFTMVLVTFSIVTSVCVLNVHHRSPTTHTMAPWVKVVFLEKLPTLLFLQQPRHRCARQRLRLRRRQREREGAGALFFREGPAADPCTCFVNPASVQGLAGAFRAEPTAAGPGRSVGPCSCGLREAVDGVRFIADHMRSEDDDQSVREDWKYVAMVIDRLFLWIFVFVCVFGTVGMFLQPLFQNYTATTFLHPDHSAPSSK

Compound	melting point [°C]	Ki [1] [nM]
CNC1(CNc2cnc(Cl)c(-c3cccnc3)c2)CC1.Cl.Cl.Cl	180 to 185	–
CNC1(CNc2cnc(Cl)c(-c3cccc(C(=O)O)c3)c2)CC1.Cl.Cl	140 to 145	–
CNC1(CNc2cnc(Cl)c(-c3ccc(C(=O)O)cc3)c2)CC1.Cl.Cl	175 to 182	–
CNC1(CNc2cnc(Cl)c(-c3ccc(N)cc3)c2)CC1.Cl.Cl	190 to 196	–
CNC1(CN(C)c2cnc(Cl)c(-c3ccc(C(=O)O)cc3)c2)CC1.Cl.Cl	138 to 145	–
CNC1(CN(C)c2cnc(Cl)c(-c3ccncc3)c2)CC1.Cl.Cl	110 to 120	–
CNC1(CNc2cnc(C)c(-c3ccc(C(=O)O)cc3)c2)CC1.Cl.Cl	241 to 245	–
CNC1(CNc2cnc(C)c(-c3ccncc3)c2)CC1.Cl.Cl.Cl	240 to 248	–
CNC1(CNc2cnc(C)c(-c3ccc(N)cc3)c2)CC1.Cl.Cl.Cl	190 to 200	–
CNC1(CN(C)c2cnc(C)c(-c3ccncc3)c2)CC1.Cl.Cl.Cl	182 to 187	–
CNC1(CN(C)c2cnc(C)c(-c3ccc(N)cc3)c2)CC1.Cl.Cl.Cl	235 to 240	–
Cl.NCC1(COc2cnc(Cl)c(-c3ccc([N+](=O)[O-])cc3)c2)CC1	145 to 150	–
CNC1(COc2cnc(Cl)c(-c3ccc(CO)cc3)c2)CC1.Cl.Cl	142 to 146	–
Cc1ncc(OCC2(CN)CC2)cc1-c1ccc(Cl)cc1.Cl.Cl	194 to 199	–
Cc1ncc(OCC2(CN)CC2)cc1-c1cccc(Cl)c1.Cl.Cl	223 to 227	–
CNC1(COc2cnc(C)c(-c3cccc(C#N)c3)c2)CC1.Cl.Cl	238 to 242	–
CNC1(COc2cnc(C)c(-c3ccc(C#N)cc3)c2)CC1.Cl.Cl	220 to 224	–
CNC1(COc2cncc(-c3cccc(C#N)c3)c2)CC1.Cl.Cl	110 to 120	–
Cl.NCC1(COc2cnc(F)c(-c3ccc(Cl)cc3)c2)CC1	55 to 60	–
Cl.NCC1(COc2cnc(F)c(-c3cccc(Cl)c3)c2)CC1	126 to 130	–
CNC1(COc2cnc(F)c(-c3ccc(C#N)cc3)c2)CC1.Cl	90 to 105	–
CNC1(COc2cnc(F)c(-c3cccc(C#N)c3)c2)CC1.Cl	211 to 215	–
Cl.NCC1(COc2cnc(Cl)c(-c3cccc([N+](=O)[O-])c3)c2)CC1	229 to 232	–
CNC1(COc2cnc(Cl)c(-c3ccc(SC)cc3)c2)CC1.Cl.Cl	144 to 148	–
COc1ccc(-c2cncc(OCC3(CN)CC3)c2)cc1.Cl.Cl	215 to 220	–
CCc1ccc(-c2cc(OCC3(CN)CC3)cnc2Cl)cc1.Cl.Cl	112 to 114	–

Compound	melting point [°C]	Ki [1] [nM]
Cc1ccccc1-c1cc(OCC2(CN)CC2)cnc1Cl.Cl	130 to 132	–
Cc1cccc(-c2cc(OCC3(CN)CC3)cnc2Cl)c1.Cl	152 to 154	–
Cl.NCC1(COc2cnc(Cl)c(-c3cccc(Cl)c3)c2)CC1	182 to 184	–
CNC1(COc2cnc(Cl)c(-c3cccc(C#N)c3)c2)CC1.Cl	228 to 232	–
COc1cc(-c2cc(OCC3(CN)CC3)cnc2Cl)cc(OC)c1OC.Cl	138 to 140	–
Cl.NCC1(COc2cnc(Cl)c(-c3cc(C(F)(F)F)cc(C(F)(F)F)c3)c2)CC1	182 to 188	–
CNC1(COc2cnc(Cl)c(-c3cc(F)ccc3F)c2)CC1.Cl	140 to 142	–
CNC1(COc2cnc(Cl)c(-c3cc(Cl)ccc3Cl)c2)CC1.Cl	140 to 142	–
CNC1(COc2cnc(Cl)c(-c3cc(Cl)cc(Cl)c3)c2)CC1.Cl	186 to 188	–
Cl.NCC1(COc2cnc(Cl)c(-c3c(Cl)cccc3Cl)c2)CC1	182 to 186	–
CNC1(COc2cnc(Cl)c(-c3cccc(NC(C)=O)c3)c2)CC1.Cl	220 to 222	–
Cc1cccc(-c2cncc(OCC3(CN)CC3)c2)c1.Cl.Cl	215 to 218	–
Cl.Cl.NCC1(COc2cncc(-c3cccc([N+](=O)[O-])c3)c2)CC1	220 to 225	–
Cl.Cl.NCC1(COc2cncc(-c3cccc(Cl)c3)c2)CC1	230 to 235	–
Cl.Cl.NCC1(COc2cncc(-c3cccc(F)c3)c2)CC1	210 to 214	–
CCc1ccc(-c2cncc(OCC3(CN)CC3)c2)cc1.Cl.Cl	197 to 200	–
CNC1(COc2cncc(-c3ccccc3C)c2)CC1.Cl.Cl	192 to 196	–
Cl.Cl.NCC1(COc2cncc(-c3cc(F)ccc3F)c2)CC1	188 to 192	–
CNC1(COc2cncc(-c3cc(OC)c(OC)c(OC)c3)c2)CC1.Cl	116 to 120	–
Cl.Cl.NCC1(COc2cncc(-c3cc(Cl)ccc3Cl)c2)CC1	195 to 200	–
CNC1(COc2cncc(-c3cc(C(F)(F)F)cc(C(F)(F)F)c3)c2)CC1.Cl	132 to 136	–
Cl.Cl.Cl.NCC1(COc2cncc(-c3cccc(N)c3)c2)CC1	185 to 190	–
Cl.Cl.NCC1(COc2cnc(F)c(-c3cccc(N)c3)c2)CC1	158 to 161	–
Cc1ncc(OCC2(CN)CC2)cc1-c1cccc(N)c1.Cl.Cl.Cl	222 to 228	–
CCOC(=O)c1ccc(-c2cc(OCC3(NC)CC3)cnc2Cl)cc1.Cl.Cl	146 to 148	–
COc1ccc(-c2cc(OCC3(N)CC3)cnc2Cl)cc1.Cl.Cl	207 to 211	–

Compound	melting point [°C]	Ki [1] [nM]
COc1ccc(-c2cc(OCC3(N(C)C)CC3)cnc2Cl)cc1.Cl	208 to 210	–
CNC1(COc2cnc(Cl)c(-c3ccc(C(N)=O)cc3)c2)CC1.Cl	130	–
Cl.Cl.NCC1(COc2cncc(-c3ccc(Cl)cc3)c2)CC1	208 to 213	–
CNC1(COc2cnc(F)c(-c3ccc(C(=O)O)cc3)c2)CC1.Cl.Cl	211 to 215	–
Cl.Cl.NCC1(COc2cnc(Cl)c(-c3cccnc3)c2)CC1	210 to 215	–
Cl.Cl.NCC1(COc2cnc(Cl)c(-c3ccncc3)c2)CC1	125 to 130	–
Cl.Cl.NCC1(COc2cnc(Cl)c(-c3ccc(N)cc3)c2)CC1	240 to 243	–
Cl.Cl.NCC1(COc2cnc(F)c(-c3ccc(N)cc3)c2)CC1	225 to 230	–
CNC1(COc2cnc(Cl)c(-c3ccc(O)cc3)c2)CC1.Cl.Cl	216 to 220	–
CNC1(COc2cnc(Cl)c(-c3ccc(NC(=O)CCl)cc3)c2)CC1.Cl	140 to 144	–
CNC1(COc2cnc(Cl)c(-c3ccc(N=C=S)cc3)c2)CC1.Cl	172 to 176	–
Cl.Cl.NCC1(COc2cnc(Cl)c(-c3ccccc3)c2)CC1	130 to 135	–
Cl.Cl.NCC1(COc2cnc(-c3ccc(Cl)cc3)c(-c3ccc(Cl)cc3)c2)CC1	220 to 225	–
Cl.Cl.NCC1(COc2cnc(-c3ccc([N+](=O)[O-])cc3)c(-c3ccc([N+](=O)[O-])cc3)c2)CC1	215 to 220	–
CNC1(COc2cnc(-c3ccc(C#N)cc3)c(-c3ccc(C#N)cc3)c2)CC1.Cl.Cl	205 to 208	–
Cc1ncc(OCC2(CN)CC2)cc1-c1ccc(N)cc1.Cl.Cl.Cl	245 to 250	–
CNC1(CNc2cncc(-c3cccc(C(=O)O)c3)c2)CC1.Cl.Cl	248 to 250	–
CNC1(COc2cncc(-c3ccc(C)cc3)c2)CC1.Cl.Cl [Example 2, Methyl[1-({[5-(4-methylphenyl)pyridin-3-yl]oxy}methyl)cyclopropyl]amine dihydrochloride]	218 to 223	8.5
NCC1(COc2cnc(Cl)c(-c3ccc(F)cc3)c2)CC1 [Example 26, [1-({[6-Chloro-5-(4-fluorophenyl)pyridin-3-yl]oxy}methyl)cyclopropyl]methylamine hydrochloride]	–	0.3
[1-({[5-(3,5-Dichlorophenyl)pyridin-3-yl]oxy}methyl)cyclopropyl]methylamine dihydrochloride [Example 52]	–	1.4
[1-({[5-(4-Methoxyphenyl)pyridin-3-yl]oxy}methyl)cyclopropyl]methylamine dihydrochloride [Example 11]	–	0.8
[1-({[5-(4-Nitrophenyl)pyridin-3-yl]oxy}methyl)cyclopropyl]methylamine dihydrochloride [Example 6]	–	2.3
[1-({[6-Chloro-5-(3-fluorophenyl)pyridin-3-yl]oxy}methyl)cyclopropyl]methylamine hydrochloride [Example 32]	–	0.4
[1-({[6-Chloro-5-(4-methylphenyl)pyridin-3-yl]oxy}methyl)cyclopropyl]methylamine dihydrochloride [Example 10]	–	0.7
